This test concerns the target T1, β-catenin/Tcf protein-protein interaction (Homo sapiens, UniProt P35222).
T1 construct: Wild-type β-catenin (residues 138-781) were cloned into a pET-28b vector; 6×histidine (C); made in house; host or cells: E. coli BL21 DE3
T1 sequence (P35222 138-781): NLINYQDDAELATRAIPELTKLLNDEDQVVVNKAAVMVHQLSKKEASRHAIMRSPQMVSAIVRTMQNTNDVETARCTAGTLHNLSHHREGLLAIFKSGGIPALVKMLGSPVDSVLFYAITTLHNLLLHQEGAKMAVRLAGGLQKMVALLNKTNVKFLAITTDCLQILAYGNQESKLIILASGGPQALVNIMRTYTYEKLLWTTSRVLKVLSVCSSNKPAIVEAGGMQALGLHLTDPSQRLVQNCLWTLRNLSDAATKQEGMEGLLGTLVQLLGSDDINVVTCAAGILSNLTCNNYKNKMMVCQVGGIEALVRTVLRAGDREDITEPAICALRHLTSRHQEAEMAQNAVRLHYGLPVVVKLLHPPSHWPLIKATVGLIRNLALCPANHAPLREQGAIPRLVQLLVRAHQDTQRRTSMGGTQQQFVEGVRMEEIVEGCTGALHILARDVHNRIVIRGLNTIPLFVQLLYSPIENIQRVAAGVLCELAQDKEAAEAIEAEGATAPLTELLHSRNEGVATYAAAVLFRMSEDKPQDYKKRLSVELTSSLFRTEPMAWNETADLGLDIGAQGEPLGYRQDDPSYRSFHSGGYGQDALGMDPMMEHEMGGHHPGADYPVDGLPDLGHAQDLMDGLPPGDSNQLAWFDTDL
Description: FP competitive inhibition assay. It counts as binding. Here is the method: Protein Expression and Purification. Wild-type β-catenin (residues 138-781) were cloned into a pET-28b vector carrying a C-terminal 6×histidine (Novagen) and transformed into E. coli BL21 DE3 (Novagen). Cells were cultured in LB medium with 30 μg/mL kanamycin until the OD600 was approximately 0.8, and then protein expression was induced with 400 μM of IPTG at 20° C. overnight. Cells were lysed by sonication. The proteins were purified by Ni-NTA affinity chromatography (30210, Qiagen) and dialyzed against a buffer containing 20 mM of Tris (pH 8.8), 100 mM NaCl, 10% glycerol, and 3 mM DTT. The purity of β-catenin was set to >95% as determined by SDS-PAGE gel analysis. Native non-denaturing gel electrophoresis experiment and the thermal-shift assay on an iCycler iQ Real Time Detection System (Bio-Rad) were performed for each purified protein. In the thermal shift assay, protein unfolding was evaluated through measuring the fluorescence changes of fluorescent dye Sypro Orange with purified β-catenin proteins. A temperature increment of 1° C./min was applied to monitor protein stability and detect protein aggregation. CD spectra were measured on a J-815 spectropolarimeter (Jasco). All spectra were recorded using a 1 mm path-length quartz cell. The CD spectra were averaged over three scans, and the wavelength was scanned from 260 to 190 nm in step of 1 nm. All spectra were recorded at room temperature, and the baseline was corrected by subtracting the CD spectra of a blank control containing all of the substances except protein. Samples were prepared at a concentration around 1-5 μM in a buffer of 10 mM potassium phosphate and 100 mM potassium fluoride at pH 7.0 to ensure that the transmission of light through the sample was not restricted. All proteins were stable, and no aggregation was observed under storage or assay conditions. Proteins were aliquoted and stored at −80° C. C-terminally fluorescein-labeled human Tcf4 (residues 7-51) was synthesized and HPLC purified with purity >95%. The structures were validated by LC/MS (liquid chromatography/mass spectrometry).
FP Assays. The procedures for the FP competitive inhibition assays have been described previously (Zhang, M.; Huang, Z.; Yu, B.; Ji, H. New homogeneous high-throughput assays for inhibitors of β-catenin/Tcf protein-protein interactions Anal. Biochem. 2012, 424, 57-63; Zhang, M.; Catrow, J. L.; Ji, H. High-throughput selectivity assays for small-molecule inhibitors of β-catenin/T-cell factor protein-protein interactions. ACS Med. Chem. Lett. 2013, 4, 306-311). Briefly, all of the tested compounds were prepared as 10 mM DMSO stocks. In the primary screen, the concentrations of the compounds and DMSO were set to 50 μM and 1% (v/v). Only the compounds which FP signal decreases were greater than 50% in the single-point β-catenin/Tcf assay were evaluated by counter screen. […] In the FP competitive inhibition assay, 10 nM human β-catenin and 2.5 nM of C-terminally fluorescein-labeled human Tcf4 were incubated in an assay buffer of 137 mM NaCl, 2.7 mM KCl, 10 mM Na2HPO4, 2 mM KH2PO4, 100 μg/mL of bovine γ-globulin, and 0.01% Triton-X100 for 15 min at 4° C. Bovine γ-globulin and Triton-X100 were included in the assay buffer to decrease the likelihood of compound acting by aggregate formation. Different concentrations of the tested compounds in the assay buffer were added to each test plate to make a final volume of 100 μL. Each assay plate was covered black and gently mixed on an orbital shaker at 4° C. for 1.5 h to reach equilibrium before the polarization values were read. The IC50 value was determined by nonlinear least-square analysis of GraphPad Prism 5.0. The Ki values were derived (Nikolovska-Coleska, Z.; Wang, R.; Fang, X.; Pan, H.; Tomita, Y.; Li, P.; Roller, P. P.; Krajewski, K.; Saito, N. G.; Stuckey, J. A.; Wang, S. Development and optimization of a binding assay for the XIAP BIR3 domain using fluorescence polarization. Anal. Biochem. 2004, 332, 261-273). […]

Setting [1] is: Assay 1, mean ± SD (n = 3), read-out: Ki ± SD, Assay 1.
[2] abbreviates: Assay 2, mean ± SD (n = 3), read-out: Ki ± SD, Assay 2.
[3] abbreviates: Assay 3, mean ± SD (n = 3), read-out: Ki ± SD, Assay 3.
Where [4] appears, read: Assay 4, mean ± SD (n = 3), read-out: Ki ± SD, Assay 4.

The text below walks through data of US11530186B2, “Inhibitors for the β-catenin / T-cell factor protein-protein interaction” (H. LEE MOFFITT CANCER CENTER AND RESEARCH INSTITUTE, INC., priority 2018, dated 2022).

As a reminder, the Ki is the equilibrium dissociation constant of an inhibitor or competing ligand from its target.

Read-outs that look alike come from different tables or passages of the source.

For the compound `O=C(O)c1ccc2c(c1)c(CCc1ccccc1)c(CCc1nc3ccccc3s1)n2CCc1nn[nH]n1` [Compound 25, 1-(2-(2H-tetrazol-5-yl)ethyl)-2-(2-(benzo[d]thiazol-2-yl)ethyl)-3-phenethyl-1H-indole-5-carboxylic acid], the Ki under setting [1] was 11 ± 3.9 µM and the Ki under setting [2] came to 4.1 ± 0.88 µM.
On to `O=C(O)c1ccc2c(c1)c(CCc1ccc(F)cc1)c(CCc1nc3ccccc3s1)n2CCc1nn[nH]n1` [Compound 26, 1-(2-(2H-tetrazol-5-yl)ethyl)-2-(2-(benzo[d]thiazol-2-yl)ethyl)-3-(4-fluorophenethyl)-1H-indole-5-carboxylic acid], for which the Ki reads like this: under setting [1], 6.7 ± 1.1 µM; under setting [2], 2.7 ± 0.54 µM.
In the same order, the values of `Cc1ccc(CCc2c(CCc3nc4ccccc4s3)n(CCc3nn[nH]n3)c3ccc(C(=O)O)cc23)cc1` [Compound 28, 1-(2-(2H-tetrazol-5-yl)ethyl)-2-(2-(benzo[d]thiazol-2-yl)ethyl)-3-(4-methylphenethyl)-1H-indole-5-carboxylic acid] are 2.3 ± 0.54 µM and 0.87 ± 0.33 µM.
Take `O=C(O)c1ccc2c(c1)c(CCc1ccc(Cl)cc1)c(CCc1nc3ccccc3[nH]1)n2CCc1nn[nH]n1` [Compound 29, 2-(2-(1H-benzo[d]imidazol-2-yl)ethyl)-1-(2-(2H-tetrazol-5-yl)ethyl)-3-(4-chlorophenethyl)-1H-indole-5-carboxylic acid]: the inhibition constant (Ki) runs as follows: under setting [1], 11 ± 1.8 µM; under setting [2], 5.2 ± 1.7 µM.
With `O=C(O)c1ccc2c(c1)c(CCc1ccc(Cl)cc1)c(CCc1nc3cc(Cl)ccc3s1)n2CCc1nn[nH]n1` [Compound 30, 1-(2-(2H-tetrazol-5-yl)ethyl)-2-(2-(5-chlorobenzo[d]thiazol-2-yl)ethyl)-3-(4-chlorophenethyl)-1H-indole-5-carboxylic acid], the inhibitory constant (Ki) under setting [1] was determined as 1.1 ± 0.27 µM, the Ki under setting [2] was determined as 1.6 ± 0.63 µM and the inhibitory constant (Ki) under setting [3] came to 2.5 ± 1.5 µM.
For the compound `COc1ccc2sc(CCc3c(CCc4ccc(Cl)cc4)c4cc(C(=O)O)ccc4n3CCc3nn[nH]n3)nc2c1` [Compound 31, 1-(2-(2H-tetrazol-5-yl)ethyl)-3-(4-chlorophenethyl)-2-(2-(5-methoxybenzo[d]thiazol-2-yl)ethyl)-1H-indole-5-carboxylic acid], the inhibitory constant (Ki) was found to be 2 ± 0.4 µM under setting [1], 4.1 ± 0.6 µM under setting [2], 4.1 ± 1.2 µM under setting [3] and 1.6 ± 0.12 µM under setting [4].
As to `COCCOc1ccc2sc(CCc3c(CCc4ccc(Cl)cc4)c4cc(C(=O)O)ccc4n3CCc3nn[nH]n3)nc2c1` [Compound 32, 1-(2-(2H-tetrazol-5-yl)ethyl)-3-(4-chlorophenethyl)-2-(2-(5-(2-methoxyethoxy)benzo [d]thiazol-2-yl)ethyl)-1H-indole-5-carboxylic acid], the Ki runs as follows: under setting [1], 6.1 ± 1.5 µM; under setting [2], 7.5 ± 1.9 µM; under setting [3], 3.7 ± 1.3 µM.
Consider `O=C(O)c1ccc2c(c1)c(CCc1ccc3ccccc3c1)c(CCc1nc3ccccc3s1)n2CCc1nn[nH]n1` [Compound 36, 1-(2-(2H-tetrazol-5-yl)ethyl)-2-(2-(benzo[d]thiazol-2-yl)ethyl)-3-(2-(naphthalen-2-yl)ethyl)-1H-indole-5-carboxylic acid], for which the inhibitory constant (Ki) under setting [1] was found to be 0.61 ± 0.065 µM.
Regarding `O=C(O)CCn1c(CCc2nc3ccccc3s2)c(CCc2ccccc2)c2cc(C(=O)O)ccc21` [Compound 37, 2-(2-(Benzo[d]thiazol-2-yl)ethyl)-1-(2-carboxyethyl)-3-phenethyl-1H-indole-5 carboxylic acid], the inhibition constant Ki under setting [1] amounted to 28 ± 6.8 µM.
Same read-out and setting: as for `O=C(O)CCn1c(CCc2nc3ccccc3s2)c(CCc2ccc(F)cc2)c2cc(C(=O)O)ccc21` [Compound 38, 2-(2-(benzo[d]thiazol-2-yl)ethyl)-1-(2-carboxyethyl)-3-(4-fluorophenethyl)-1H-indole-5-carboxylic acid], the figure is 19 ± 2.8 µM.
For the compound `O=C(O)CCn1c(CCc2nc3ccccc3s2)c(CCc2ccc(Cl)cc2)c2cc(C(=O)O)ccc21` [Compound 39, 2-(2-(benzo[d]thiazol-2-yl)ethyl)-1-(2-carboxyethyl)-3-(4-chlorophenethyl)-1H-indole-5-carboxylic acid], the Ki under setting [1] turned out to be 7.9 ± 1.5 µM and the Ki under setting [2] was determined as 1.4 ± 0.45 µM.
With `Cc1ccc(CCc2c(CCc3nc4ccccc4s3)n(CCC(=O)O)c3ccc(C(=O)O)cc23)cc1` [Compound 40, 2-(2-(benzo[d]thiazol-2-yl)ethyl)-1-(2-carboxyethyl)-3-(4-methylphenethyl)-1H-indole-5-carboxylic acid], the Ki under setting [1] was found to be 5.8 ± 1.3 µM.
In the case of `O=C(O)CCn1c(CCc2nc3ccccc3[nH]2)c(CCc2ccc(Cl)cc2)c2cc(C(=O)O)ccc21` [Compound 41, 2-(2-(1H-benzo[d]imidazol-2-yl)ethyl)-1-(2-carboxyethyl)-3-(4-chlorophenethyl)-1H-indole-5-carboxylic acid], the inhibition constant Ki is, setting by setting: under setting [1], 36 ± 9.5 µM; under setting [2], 10 ± 2.2 µM.
In the case of `Cc1ccc(CCc2c(CCc3nc4ccccc4[nH]3)n(CCC(=O)O)c3ccc(C(=O)O)cc23)cc1` [Compound 42, 2-(2-(1H-benzo[d]imidazol-2-yl)ethyl)-1-(2-carboxyethyl)-3-(4-methylphenethyl)-1H-indole-5-carboxylic acid], the Ki by setting is: under setting [1], 29 ± 3.3 µM; under setting [2], 2 ± 1.2 µM.
Take `COCCOc1ccc2sc(CCc3c(CCc4ccc(Cl)cc4)c4cc(C(=O)NCc5ccc(Cl)cc5)ccc4n3CCc3nn[nH]n3)nc2c1` [Compound 46, 1-(2-(2H-tetrazol-5-yl)ethyl)-N-(4-chlorobenzyl)-3-(4-chlorophenethyl)-2-(2-(5-(2-methoxy-ethoxy)benzo[d]thiazol-2-yl)ethyl)-1H-indole-5-carboxamide]: under setting [1], the Ki came to 1.3 ± 0.4 µM.
`COc1ccc2sc(CCc3c(CCc4ccc(Cl)cc4)c4cc(C(=O)Nc5ccc(Cl)cc5)ccc4n3CCc3nn[nH]n3)nc2c1` [Compound 47, 1-(2-(2H-tetrazol-5-yl)ethyl)-3-(4-chlorophenethyl)-N-(4-chlorophenyl)-2-(2-(5-methoxybenzo[d]thiazol-2-yl)ethyl)-1H-indole-5-carboxamide]: the inhibition constant (Ki) was 7.4 ± 1.4 µM under setting [1], 10 ± 0.66 µM under setting [2], 2.1 ± 0.26 µM under setting [3] and 2.1 ± 0.27 µM under setting [4].
